Data on 26 compounds can be found in patent US20170247326A1, “Substituted Pyrrolidine Carboxamide Compounds” (EPIZYME, INC., priority 2014, published 2017).

Some results are limits rather than exact numbers.

Usually IC50 stands for the point on the concentration scale where inhibition reaches its midpoint.

For this assay, the target named is T1, SMYD2 (Homo sapiens, UniProt Q9NRG4).
T1 construct: Full length SMYD2 (NP_064582.2) was cloned; His6 (N, cleaved yes); FLAG (N); made in house; host or cells: Sf9 insect cells
T1 sequence (Q9NRG4 whole entry): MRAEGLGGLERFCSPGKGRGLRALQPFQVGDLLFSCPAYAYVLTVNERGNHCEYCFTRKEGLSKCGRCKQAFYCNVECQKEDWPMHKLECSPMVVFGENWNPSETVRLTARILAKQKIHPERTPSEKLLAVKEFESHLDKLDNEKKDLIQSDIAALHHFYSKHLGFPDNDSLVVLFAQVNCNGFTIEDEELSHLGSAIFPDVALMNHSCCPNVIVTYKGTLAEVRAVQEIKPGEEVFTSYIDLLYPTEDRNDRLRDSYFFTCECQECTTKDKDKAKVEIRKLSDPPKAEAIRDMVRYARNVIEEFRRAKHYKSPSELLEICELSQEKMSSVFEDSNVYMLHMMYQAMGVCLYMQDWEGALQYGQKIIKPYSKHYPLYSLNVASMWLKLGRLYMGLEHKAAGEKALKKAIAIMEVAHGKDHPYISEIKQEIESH
Description: SMYD2 biochemical assay (3H-SAM, biotinylated peptide substrate, Flashplate). The note with it: Table 3; average of n = 1 to n = 50; read-out: SMYD2 Biochem IC50. The text has this: S-adenosylmethionine (SAM), S-adenosylhomocysteine (SAH), bicine, Tween20, dimethylsulfoxide (DMSO), bovine skin gelatin (BSG), and Tris(2-carboxyethyl)phosphine hydrochloride (TCEP) were purchased from Sigma-Aldrich at the highest level of purity possible. ^3H-SAM was purchase from American Radiolabeled Chemicals with a specific activity of 80 Ci/mmol. 384-well streptavidin Flashplates were purchased from PerkinElmer.
Peptide was synthesized with a N-terminal linker-affinity tag motif and a C-terminal amide cap by 21st Century Biochemicals. The peptide was high high-performance liquid chromatography (HPLC) purified to greater than 95% purity and confirmed by liquid chromatography mass spectrometry (LC-MS). The sequence was […](K-Biot)-amide. (SEQ ID NO: 3)
Full length SMYD2 (NP_064582.2) was cloned into a pFastbac-Htb-lic vector with an N-terminal His6 tag and FLAG tag, preceded by a TEV protease cleavage site. The protein was expressed in Sf9 insect cells. Cells were resuspended in lysis buffer (25 mM HEPES-NaOH, pH 7.5, 200 mM NaCl, 5% glycerol, and 5 mM […] and lysed by sonication. The protein was purified by Ni-NTA (Qiagen), followed by TEV cleavage to remove the His6 tag, subtractive Ni-NTA (Qiagen), and gel filtration chromatography using an S200 column (GE Healthcare). Purified protein was stored in 20 mM Tris-HCl, pH 8.0, 100 mM NaCl, and 1 mM TCEP.
General Procedure for SMYD2 Enzyme Assays on Peptide Substrates
The assays were all performed in a buffer consisting of 20 mM Bicine (pH=7.6), 1 mM TCEP, 0.005% Bovine Skin Gelatin, and 0.002% Tween20, prepared on the day of use. Compounds in 100% DMSO (1 ul) were spotted into a polypropylene 384-well V-bottom plates (Greiner) using a Platemate Plus outfitted with a 384-channel head (Thermo Scientific). DMSO (1 ul) was added to Columns 11, 12, 23, 24, rows A-H for the maximum signal control and 1 ul of SAH, a known product and inhibitor of SMYD2, was added to columns 11, 12, 23, 24, rows I-P for the minimum signal control. A cocktail (40 ul) containing the SMYD2 enzyme was added by Multidrop Combi (Thermo-Fisher). The compounds were allowed to incubate with SMYD2 for 30 min at room temperature, then a cocktail (10 ul) containing ^3H-SAM and peptide was added to initiate the reaction (final volume=51 ul). The final concentrations of the components were as follows: SMYD2 was 1.5 nM, ^3H-SAM was 10 nM, and peptide was 60 nM, SAH in the minimum signal control wells was 1000 uM, and the DMSO concentration was 2%. The assays were stopped by the addition of non-radioactive SAM (10 ul) to a final concentration of 600 uM, which dilutes the ^3H-SAM to a level where its incorporation into the peptide substrate is no longer detectable. 50 ul of the reaction in the 384-well polypropylene plate was then transferred to a 384-well Flashplate and the biotinylated peptides were allowed to bind to the streptavidin surface for at least 1 hour before being washed three times with 0.1% Tween20 in a Biotek ELx405 plate washer. The plates were then read in a PerkinElmer TopCount plate reader to measure the quantity of ^3H-labeled peptide bound to the Flashplate surface, measured as disintegrations per minute (dpm) or alternatively, referred to as counts per minute (cpm).
Where dpm=disintegrations per minute, cmpd=signal in assay well, and min and max are the respective minimum and maximum signal controls.
Where top and bottom are the normally allowed to float, but may be fixed at 100 or 0 respectively in a 3-parameter fit. The Hill Coefficient normally allowed to float but may also be fixed at 1 in a 3-parameter fit. I is the compound concentration.
SMYD2 biochemical assay data for representative Compounds of the Disclosure are presented in Tables 1, 3, and 4 in the column titled “SMYD2 Bicohem IC50 (μM).”
With `CC(C)N1C[C@H](C)[C@H](NC(=O)c2cn(C3CC3)nn2)C1` (racemic) [compound 27, (±)-cis-1-cyclopropyl-N-[4-methyl-1-(propan-2-yl)pyrrolidin-3-yl]-1H-1,2,3-triazole-4-carboxamide], the IC50 amounted to 0.781 µM.
As for `CC(C)N1C[C@@H](C)[C@H](NC(=O)c2ccc3c(c2)OCC(=O)N3)C1` (racemic) [compound 28, (±)-trans-N-[4-methyl-1-(propan-2-yl)pyrrolidin-3-yl]-3-oxo-3,4-dihydro-2H-1,4-benzoxazine-7-carboxamide], the figure is more than 50 µM; as for `CC(C)N1C[C@H](C)[C@H](NC(=O)c2ccc3c(c2)OCC(=O)N3)C1` (racemic) [compound 29, (±)-cis-N-[4-methyl-1-(propan-2-yl)pyrrolidin-3-yl]-3-oxo-3,4-dihydro-2H-1,4-benzoxazine-7-carboxamide], more than 50 µM; as for `CC(C)N1C[C@H](C)[C@H](NC(=O)c2ccc(N3CCCC3)cc2)C1` (racemic) [compound 30, (±)-cis-N-[4-methyl-1-(propan-2-yl)pyrrolidin-3-yl]-4-(pyrrolidin-1-yl)benzamide], more than 50 µM.
With `C[C@H]1CN(C2CC2)C[C@H]1NC(=O)c1cccc(N2CCCC2)c1` (racemic) [compound 31, (±)-cis-N-[1-cyclopropyl-4-methylpyrrolidin-3-yl]-3-(pyrrolidin-1-yl)benzamide] the figure was more than 50 µM; with `CC(C)N1C[C@@H](C)[C@H](NC(=O)c2ccc(N3CCCC3)cc2)C1` (racemic) [compound 33, (±)-trans-N-[4-methyl-1-(propan-2-yl)pyrrolidin-3-yl]-4-(pyrrolidin-1-yl)benzamide], more than 50 µM.
Regarding `C[C@@H]1CN(C2CC2)C[C@H]1NC(=O)c1cccc(N2CCCC2)c1` (racemic) [compound 34, (±)-trans-N-[1-cyclopropyl-4-methylpyrrolidin-3-yl]-3-(pyrrolidin-1-yl)benzamide], the 50% inhibitory concentration (IC50) is more than 50 µM.
As for `CC(C)N1C[C@H](C)[C@H](NC(=O)c2nc(C3CC3)cs2)C1` (racemic) [compound 35, (±)-cis-4-cyclopropyl-N-[4-methyl-1-(propan-2-yl)pyrrolidin-3-yl]-1,3-thiazole-2-carboxamide], the figure is more than 50 µM; as for `CC(C)N1C[C@@H](C)[C@H](NC(=O)c2nc(C3CC3)cs2)C1` (racemic) [compound 36, (±)-trans-4-cyclopropyl-N-[4-methyl-1-(propan-2-yl)pyirolidin-3-yl]-1,3-thiazole-2-carboxamide], more than 50 µM.
With `CC(C)N1C[C@H](NC(=O)c2ccc3c(c2)NC(=O)CO3)[C@@H](C)C1` (racemic) [compound 37, (±)-trans-N-[4-methyl-1-(propan-2-yl)pyrrolidin-3-yl]-3-oxo-3,4-dihydro-2H-1,4-benzoxazine-6-carboxamide] the figure was more than 50 µM; with `CC(C)N1C[C@H](C)[C@H](NC(=O)c2noc(C3CC3)n2)C1` (racemic) [compound 38, (±)-cis-5-cyclopropyl-N-[4-methyl-1-(propan-2-yl)pyrrolidin-3-yl]-1,2,4-oxadiazole-3-carboxamide], more than 50 µM.
In the case of `CC(C)N1C[C@@H](C)[C@H](NC(=O)c2noc(C3CC3)n2)C1` (racemic) [compound 39, (±)-trans-5-cyclopropyl-N-[4-methyl-1-(propan-2-yl)pyrrolidin-3-yl]-1,2,4-oxadiazole-3-carboxamide], the concentration for half-maximal inhibition (IC50) is more than 50 µM.
As to `CC(=O)N[C@@H]1CN(C(C)C)C[C@@H]1C` (racemic) [compound 40, (±)-cis-N-[4-methyl-1-(propan-2-yl)pyrrolidin-3-yl]acetamide], the IC50 is more than 50 µM.
With `CC(C)N1C[C@H](C)[C@H](NC(=O)c2nnc(C3CC3)s2)C1` (racemic) [compound 41, (±)-cis-5-cyclopropyl-N-[4-methyl-1-(propan-2-yl)pyrrolidin-3-yl]-1,3,4-thiadiazole-2-carboxamide] the figure was 2.68 µM; with `CC(C)N1C[C@H](C)[C@H](NC(=O)c2cncc(C3CC3)n2)C1` (racemic) [compound 42, (±)-cis-6-cyclopropyl-N-[4-methyl-1-(propan-2-yl)pyrrolidin-3-yl]pyrazine-2-carboxamide], more than 50 µM.
As for `CC(C)N1C[C@@H](C)[C@H](NC(=O)c2cncc(C3CC3)n2)C1` (racemic) [compound 43, (±)-trans-6-cyclopropyl-N-[4-methyl-1-(propan-2-yl)pyrrolidin-3-yl]pyrazine-2-carboxamide], the figure is more than 50 µM; as for `CC1CN(C(C)C)CC1NC(=O)c1ccn(C(C)C)n1` (racemic) [compound 44, (±)-trans-N-[4-methyl-1-(propan-2-yl)pyrrolidin-3-yl]-1-(propan-2-yl)-1H-pyrazole-3-carboxamide], more than 50 µM.
With `CC(C)N1C[C@@H](C)[C@H](NC(=O)c2ccn(C(C)C)n2)C1` (racemic) [compound 45, (±)-trans-N-[4-methyl-1-(propan-2-yl)pyrrolidin-3-yl]-1-(propan-2-yl)-1H-pyrazole-3-carboxamide] the figure was more than 50 µM; with `CC(C)N1C[C@@H](C)[C@@H](NC(=O)c2cnn(C(C)C)c2)C1` (racemic) [compound 46, (±)-cis-N-[4-methyl-1-(propan-2-yl)pyrrolidin-3-yl]-1-(propan-2-yl)-1H-pyrazole-4-carboxamide], more than 50 µM.
For the compound `CC(C)N1C[C@H](NC(=O)c2cnn(C(C)C)c2)[C@@H](C)C1` (racemic) [compound 47, (±)-trans-N-[4-methyl-1-(propan-2-yl)pyrrolidin-3-yl]-1-(propan-2-yl)-1H-pyrazole-4-carboxamide], the IC50 was more than 50 µM.
As for `CC(C)N1C[C@@H](C)[C@H](NC(=O)c2nnc(C3CC3)s2)C1` (racemic) [compound 48, (±)-trans-5-cyclopropyl-N-[4-methyl-1-(propan-2-yl)pyrrolidin-3-yl]-1,3,4-thiadiazole-2-carboxamide], the figure is 39.5 µM; as for `CC(C)N1C[C@@H](C)[C@H](NC(=O)c2nnc(C3CC3)o2)C1` (racemic) [compound 49, (±)-trans-5-cyclopropyl-N-[4-methyl-1-(propan-2-yl)pyrrolidin-3-yl]-1,3,4-oxadiazole-2-carboxamide], 26.8 µM; as for `CC(C)N1C[C@H](C)[C@H](NC(=O)c2cc(C3CC3)ncn2)C1` (racemic) [compound 50, (±)-cis-6-cyclopropyl-N-[4-methyl-1-(propan-2-yl)pyrrolidin-3-yl]pyrimidine-4-carboxamide], 16.7 µM.
In the case of `CC(C)N1C[C@H](C)[C@H](NC(=O)c2cnc(C3CC3)cn2)C1` (racemic) [compound 51, (±)-cis-5-cyclopropyl-N-[4-methyl-1-(propan-2-yl)pyrrolidin-3-yl]pyrazine-2-carboxamide], the half-inhibitory concentration (IC50) was more than 50 µM.
As for `CC(C)N1C[C@@H](C)[C@H](NC(=O)c2cnc(C3CC3)cn2)C1` (racemic) [compound 52, (±)-trans-5-cyclopropyl-N-[4-methyl-1-(propan-2-yl)pyrrolidin-3-yl]pyrazine-2-carboxamide], the figure is more than 50 µM; as for `CC(C)N1C[C@H](C)[C@H](NC(=O)c2nnc(C3CC3)o2)C1` (racemic) [compound 53, (±)-cis-5-cyclopropyl-N-[4-methyl-1-(propan-2-yl)pyrrolidin-3-yl]-1,3,4-oxadiazole-2-carboxamide], 4.64 µM.
